The subject of one data set is lungs of live rats. The data set is described as follows: Proton MRI (S0/T2 bivariate analysis) of lungs after intratracheal bleomycin instillation. It is filed as in vivo, Sprague-Dawley rats. The protocol:
In these experiments, three groups of Sprague-Dawley rats (n=5) were instilled intratracheally with bleomycin (2.5 U/kg or 3.5 U/kg) in saline or with saline only. Rats were imaged at 2.0 T using a multi-slice Carr-Purcell-Meilboom-Gill (CPMG) sequence with 6 ms echo spacing. Signal intensity (S0) and T2 were calculated on a pixel-by-pixel basis using images collected before dosing and 1, 2, 4, and 7 weeks after. At each time point, data from dosed animals were compared to controls, and bivariate statistical analysis was employed to classify image pixels containing abnormal tissue. At week 7, pulmonary function tests were performed, then all rats were sacrificed, left lungs were formalin fixed and tri-chrome stained for histological analysis of collagen content, and right lungs were used to measure water and hydroxyproline (collagen) content.
Animal handling and treatment procedures followed a protocol approved by the Institutional Animal Care and Use Committee. A total of 18 male Sprague-Dawley rats weighing 196±8 g were used. […]
MRI Analysis. Images were reconstructed using a standard 2D Fourier transform, then they were read into Mathematica 6.0 (Wolfgram Research, Champaign, Ill.) for further analysis. […] The mean background noise was measured from the first image of each stack. […]
Following segmentation, data for each rat at each time point were written to a columnar data file that contained S0, T2, slice number, and the corresponding pixel coordinates. […] A scatter plot of T2 (y-axis) vs. S0 (x-axis) was then generated to show the clustering of the data and the relationship between the measured parameters (for example, see FIG. 2A). Using a Mathematica script and bivariate statistical analysis, an ellipsoid was calculated that encircled ˜95% of the data points that were heretofore defined as “normal” lung with 95% confidence.
Each dosed animal was compared to the control group at the same time point, and data points within the ellipsoid were deleted as shown in FIG. 4B. The percentage of total pixels that were “abnormal” was calculated for each animal at each time point. […]

Data set [1] can be described thus: Body weight and animal welfare after bleomycin instillation. It is filed as in vivo, Sprague-Dawley rats. The source says: Animal handling and treatment procedures followed a protocol approved by the Institutional Animal Care and Use Committee. A total of 18 male Sprague-Dawley rats weighing 196±8 g were used. They were divided into three groups of n=6: control, low-dose (LD), and high-dose (HD). A single animal per dose group died immediately after dosing. Therefore, each group was left with n=5. No additional unanticipated mortality occurred for the duration of the experiment.
In brief, rats were first weighed then injected subcutaneously with 0.02 mL/kg body weight (BW) glycopyrrolate to inhibit oral secretions and facilitate insertion of an endotracheal tube. After 10-15 minutes, animals were anesthetized with 3-4% isoflurane in oxygen-enriched air (30% O2, 70% N2).
Other than the initial weight loss, no other outward signs of distress were observed.

In the case of bleomycin sulfate, the “response of the LD group” value with lungs of live rats (2.5 U/kg BW intratracheal (LD), after the first two weeks of the study) was “very mild response”. Moreover, the “percentage of "abnormal" pixels vs control rats” value with lungs of live rats (2.5 U/kg BW intratracheal (LD), by week 4) is reported as “essentially indistinguishable from the control rats”. The “response (fraction of "abnormal" pixels) compared with LD rats” value in the data set with lungs of live rats (3.5 U/kg BW intratracheal (HD), throughout the experiment (7 weeks)) is given as “stronger response”. Further, the breathing under anesthesia result in data set [1] (3.5 U/kg BW (HD), weeks 1, 2 and 4) is on record as “struggle with breathing under anesthesia”. For the same substance, the body weight change result in data set [1] (both dose groups (2.5 and 3.5 U/kg BW), first week) is reported as “lost a significant amount of weight”.

(Values after patent publication US8466678B2, “Method and apparatus for enhanced in vivo MRI imaging” (Battelle Memorial Institute, priority 2009, dated 2013).)
